Data set [1] has as its system Human Multiple Myeloma Cells (MM.1S) cultured in the presence of BAR agonist for one month. The data set is described as follows: Antiproliferative activity on MM.1S cultured one month in the presence of salmeterol or salbutamol. In kind it is cell-based. The note with it: Homo sapiens, MM1.S, […] dexamethasone; cells cultured one month in salmeterol (64 nM), Table 48; read-out: inhibition of proliferation. From the text:
A recurrent problem in cancer therapy is that prolonged exposure of tumor cells to chemotherapeutic agents can generate cells resistant to agents that initially have antiproliferative or cell killing activity. […] Cells cultured for one month in the presence of BAR agonist were washed to remove drug and put into 384 well plates for 9×9 dose matrix combination screening with BAR agonists and dexamethasone.

The test system of the next data set is MM.1S cells. The data set is described as follows: Annexin V/PI FACS assay of control MM.1S and cells cultured one month with salmeterol or salbutamol. The format is cell-based, human. (In general: A flow cytometer gives signals particle by particle.)
Data set [2] concerns human multiple myeloma xenografts (MM1S). The data set is described as follows: MM.1S xenograft model in SCID mice. In kind it is in vivo, mouse. The note with it: Dex 1 mg/kg or salmeterol 10 mg/kg, subcutaneous daily. On the procedure:
The human multiple myeloma cell line MM1S was injected subcutaneously into the flanks of SCID mice. Five days following the injection of MM1S cells, animals were randomized into the following four treatment groups (n=6-7) based on tumor size.
Group 1—Vehicle (90% PBS+10% EtOH)
The prepared test, positive, and negative control substances were administered via subcutaneous injection daily for up to 85 Days. During the treatment period, tumor volume and animal body weights were measured 3 times per week (Monday, Wednesday and Friday). The animals were removed from the study if there was overall poor body condition, tumor volume above 3000 mm^3, body weight loss greater than or equal to 20% or ulcerated tumors.
The slope of the tumor volume growth of each animal was calculated from the initial study day until the day each animal was removed from the study. From these slopes the mean change in tumor volume per study day was calculated.

Data set [3] has as its system Human Multiple Myeloma Cells (MM.1S).
The test system of data set [4] is Human Multiple Myeloma Cells (ANBL-6).
In data set [5] the test system is Human Multiple Myeloma Cells (MM.1S). The conditions noted are these: Salmeterol 0 μM (single agent), DEX (μM): 0.15, 0.076, 0.038, 0.019, 0.0096.
Data set [6] shares this test system. The data set is described as follows: cells. The conditions noted are these: MM1.S.
Data set [7] has the same test system. In words: Anti-proliferation assay (ATPLite, 72 hours), MM.1S. Background: ATP-based viability assays read luminescence as a measure of living cells.
The subject of data set [8] is multiple myeloma tumor cells from patients. In words: MTT cell viability assay, multiple myeloma patient tumor cells. The note with it: patient 1 tumor cells, 48 hours, MTT; Salmeterol 0 nM (single agent); DEX (μM): 4.0, 2.0, 1.0, 0.5, 0.25, 0.125, 0.0625.
Source text: Tumor cells were obtained via bone marrow aspirates and affinity selected using CD138-linked magnetic beads.

“And” between values parts separate entries of the source, which are not always exact repeats. Equal entries are not always repeated. Where two headings read alike, the source gives them in different places.

Procedure for MM.1S cells: Forty eight hours later, the percent of cells positive for Annexin V and propidium iodide (PI) was determined using FACS (FIG. 5).

In the case of `C[C@@H]1C[C@H]2[C@@H]3CCC4=CC(=O)C=C[C@]4(C)[C@@]3(F)[C@@H](O)C[C@]2(C)[C@@]1(O)C(=O)CO` [dexamethasone], in [1], the inhibition at […] was determined as 51%. Besides, the “Annexin V/PI+ cells” value with MM.1S cells (cells exposed to salmeterol for one month, 8 nM dexamethasone, 48 hours) is given as 47%; in the data set with MM.1S cells (cells exposed to salmeterol for one month, 80 nM dexamethasone, 48 hours) it was 65%; with MM.1S cells (control cells, 8 nM dexamethasone, 48 hours (FIG. 5)), 8%; in the data set on MM.1S cells (control cells, 80 nM dexamethasone, 48 hours (FIG. 5)), 45%. Moreover, the “study day by which all animals of the group were removed” value in data set [2] is recorded as at most 66 study day. Besides, the inhibition in data set [3] came out at 39%; in data set [4] it was 6.13%. Further, the “percent inhibition of cell proliferation” value in [5] (+10 ng/ml IL-6) was 26%; in data set [5] (no IL-6) it was 45% and 44% and 32% and 27%; in [7] (Clenbuterol 0 μM (single agent), Dexamethasone (μM): 0.15, 0.076, 0.038, 0.019, 0.0095, no ICI 118,551), 47% and 38% and 70% and 63% and 56%; in data set [7] (naïve MM.1S, Salbutamol 0 μM (single agent), DEX (μM) by row: r8 2.0, r9 0.666, r10 0.23, r11 0.074, r12 0.024, r13 0.0082, r14 0.00274, r15 0.0009), 75%. Also, the inhibition at 0.15 µM in [6] (read-out: inhibition of proliferation, 0.15 μM dexamethasone, 10 ng/ml IL-6 (Table 53)) turned out to be 24%; in data set [6] (read-out: inhibition of proliferation, 0.15 μM dexamethasone, no IL-6 (Table 52)), 52%. Also, in data set [8], the “Reduction in Cell Viability” value is 50% and 56% and 53% and 46% and 47%.

The record behind these values is patent US20100009934A1, “BETA ADRENERGIC RECEPTOR AGONISTS FOR THE TREATMENT OF B-CELL PROLIFERATIVE DISORDERS” (CombinatoRx, Incorporated, priority 2008, published 2010).
